ChEMBL document CHEMBL1154267, “Imidazo[1,5-a][1,2,4]-triazolo[1,5-d][1,4]benzodiazepines as potent and highly selective GABAA alpha5 inverse agonists with potential for the treatment of cognitive dysfunction” (Bioorg Med Chem Lett, 2009)
Converted amounts (≈) assume the structure as drawn. The source made the active and inactive calls. The rule behind the calls is not given here.

Legend:
Rattus norvegicus [1] = test: Behavioral effect in Lister hooded rat assessed as reversal of Scopolamine-induced impairment of working memory at 1 mg/kg, po administered 30 mins before Scopolamine challenge by delayed match to position test; format: functional, organism-based; design: dose 1 mg/kg
[2] = Selectivity ratio of Ki for GABAA alpha-3-beta-3-gamma-2 receptor to Ki for GABAA alpha-5-beta-3-gamma-2 receptor
[3] = Half life in rat; format: ADME, organism-based; details: in vivo
[4] = Volume of distribution at steady state in rat; format: ADME, organism-based; details: in vivo, read-out: Vdss
Liver microsomes = test: Clearance in rat liver microsomes; format: ADME, Microsome
[5] = Selectivity ratio of Ki for GABAA alpha-2-beta-3-gamma-2 receptor to Ki for GABAA alpha-5-beta-3-gamma-2 receptor
[6] = target: T1, GABA-A receptor; alpha-5/beta-3/gamma-2 (Homo sapiens, UniProt P18507+P28472+P31644); test: Displacement of [3H]flumazenil from GABAA alpha-5-beta-3-gamma-2 receptor; format: protein-complex assay
T1 sequence (P18507 whole entry): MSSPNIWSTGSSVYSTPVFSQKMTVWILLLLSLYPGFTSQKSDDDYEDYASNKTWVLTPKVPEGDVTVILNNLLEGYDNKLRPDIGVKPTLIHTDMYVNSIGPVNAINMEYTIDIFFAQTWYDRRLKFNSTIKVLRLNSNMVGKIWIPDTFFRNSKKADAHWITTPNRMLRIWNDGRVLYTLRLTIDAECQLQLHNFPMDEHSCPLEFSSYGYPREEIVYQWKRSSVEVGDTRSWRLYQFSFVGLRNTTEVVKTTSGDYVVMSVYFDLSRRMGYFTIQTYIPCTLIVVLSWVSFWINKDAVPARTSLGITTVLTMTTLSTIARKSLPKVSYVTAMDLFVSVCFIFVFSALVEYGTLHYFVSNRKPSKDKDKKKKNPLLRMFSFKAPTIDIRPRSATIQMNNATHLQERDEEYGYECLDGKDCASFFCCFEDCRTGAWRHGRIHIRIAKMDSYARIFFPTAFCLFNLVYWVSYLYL
T1 sequence (P28472 whole entry): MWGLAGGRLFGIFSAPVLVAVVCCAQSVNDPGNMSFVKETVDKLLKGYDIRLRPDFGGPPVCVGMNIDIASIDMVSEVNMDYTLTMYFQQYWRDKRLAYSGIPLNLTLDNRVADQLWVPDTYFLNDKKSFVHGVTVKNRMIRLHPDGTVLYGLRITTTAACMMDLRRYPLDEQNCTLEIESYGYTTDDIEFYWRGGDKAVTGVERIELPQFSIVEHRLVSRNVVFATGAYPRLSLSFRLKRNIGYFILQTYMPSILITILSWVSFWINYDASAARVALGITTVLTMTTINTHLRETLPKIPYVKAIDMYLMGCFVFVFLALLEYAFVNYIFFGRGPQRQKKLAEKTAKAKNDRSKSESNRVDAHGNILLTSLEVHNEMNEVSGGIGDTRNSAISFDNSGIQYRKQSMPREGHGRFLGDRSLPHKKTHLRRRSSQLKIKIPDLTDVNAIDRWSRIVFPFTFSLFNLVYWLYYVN
T1 sequence (P31644 whole entry): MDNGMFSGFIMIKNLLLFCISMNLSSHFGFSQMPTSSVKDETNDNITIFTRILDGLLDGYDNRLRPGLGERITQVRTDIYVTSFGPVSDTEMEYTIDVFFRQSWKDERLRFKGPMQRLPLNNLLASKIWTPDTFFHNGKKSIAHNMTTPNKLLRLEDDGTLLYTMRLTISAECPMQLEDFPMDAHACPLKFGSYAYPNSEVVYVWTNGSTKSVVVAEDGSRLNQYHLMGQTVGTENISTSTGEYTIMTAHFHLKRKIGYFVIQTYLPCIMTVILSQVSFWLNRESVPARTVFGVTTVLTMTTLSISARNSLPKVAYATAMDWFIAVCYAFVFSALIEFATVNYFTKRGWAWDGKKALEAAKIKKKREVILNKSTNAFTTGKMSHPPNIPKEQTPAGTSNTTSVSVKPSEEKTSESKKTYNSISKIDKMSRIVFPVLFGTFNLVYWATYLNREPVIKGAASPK

Rattus norvegicus [7] = species on record: Rattus norvegicus; test: Toxicity in Lister hooded rat assessed as behavioral impairment; format: organism-based; details: in vivo
[8] = Clearance in rat; format: ADME, organism-based; details: in vivo
[9] = Selectivity ratio of Ki for GABAA alpha-1-beta-3-gamma-2 receptor to Ki for GABAA alpha-5-beta-3-gamma-2 receptor
[10] = Ratio of drug level in brain to plasma in rat; format: ADME, organism-based; details: brain and plasma
[11] = target: GABA-A receptor; alpha-5/beta-3/gamma-2 (Homo sapiens) (UniProt P18507+P28472+P31644); test: Inverse agonist activity at GABAA alpha-5-beta-3-gamma-2 receptor assessed as modulation of GABA-induced chloride ion flux by electrophysiology assay relative to GABA; format: functional
[12] = Lipophilicity, log D at pH 7.4; format: physicochemical; details: buffer
[13] = Oral bioavailability in rat; format: ADME, organism-based; details: in vivo
[14] = Permeability by PAMPA; format: ADME; details: read-out: permeability
[15] = Solubility of the compound; format: physicochemical

SMILES: Cc1cc(Cc2nc3n(n2)Cc2c(C)ncn2-c2ccc(Cl)cc2-3)on1
- Activity (Rattus norvegicus [1]): Active
- Ratio Ki [2]: 223
- half-life [3]: 1.4 h
- Vd [4]: 1.8 L/kg
- CL (Liver microsomes): 6000 µL/min/mg
- Ratio Ki [5]: 251
- Ki [6]: 0.6 nM
- Activity (Rattus norvegicus [7]): Non-toxic
- clearance [8]: 9.5 mL/min/kg
- Ratio Ki [9]: 466
- Kp [10]: 1
- Efficacy [11]: -18%
- logD [12]: 2.3
- bioavailability [13]: 44%
- Papp [14]: 3.1 ×10⁻⁶ cm/s
- solubility [15]: 14 µg/mL (≈ 38.2 µM)
